Counter-ions that a name gives are not always drawn.

recombinant Human Phosphodiesterase B2 (PDE4B2), sequence (Q07343 1-564 isoform Q07343-2): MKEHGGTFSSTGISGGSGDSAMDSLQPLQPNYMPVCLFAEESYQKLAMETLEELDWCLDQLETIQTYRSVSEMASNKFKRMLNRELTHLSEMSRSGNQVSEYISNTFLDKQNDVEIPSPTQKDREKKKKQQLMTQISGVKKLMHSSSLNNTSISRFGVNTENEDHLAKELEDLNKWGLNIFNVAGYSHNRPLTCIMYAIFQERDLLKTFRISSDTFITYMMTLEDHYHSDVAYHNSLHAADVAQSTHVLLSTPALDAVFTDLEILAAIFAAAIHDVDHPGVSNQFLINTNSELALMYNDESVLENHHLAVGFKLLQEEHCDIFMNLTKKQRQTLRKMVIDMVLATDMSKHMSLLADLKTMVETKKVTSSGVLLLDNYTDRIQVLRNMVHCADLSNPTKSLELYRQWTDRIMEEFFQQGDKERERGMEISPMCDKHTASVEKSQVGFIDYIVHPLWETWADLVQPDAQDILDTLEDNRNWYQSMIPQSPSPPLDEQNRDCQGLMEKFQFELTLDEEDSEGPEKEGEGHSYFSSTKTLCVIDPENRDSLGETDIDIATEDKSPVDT

The target of the first experiment is recombinant Human Phosphodiesterase B2 (PDE4B2) (Homo sapiens, UniProt Q07343). Briefly: Human Phosphodiesterase B2 Radiometric Assay (yttrium silicate SPA beads, [3H]cyclic AMP). It is filed as biochemical. The settings on record: recombinant human PDE4B2, radiometric SPA assay, 8 nM [3H]cyclic AMP. An outline of the steps:
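Compounds were preincubated 30 min at 30 °C with 0.1 mg/mL PDE4B2 in 50 mM HEPES pH 7.5, 8.3 mM MgCl2, 1.7 mM EGTA, 0.01% Brij 35. Then 8 nM [3H]cAMP was added for 20 min, stopped with yttrium silicate SPA beads plus 18 mM ZnSO4 capturing product 5′AMP; pIC50 by curve fitting.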
Turning to `CN(C)C1(C(=O)NC2CCC(n3c(=O)c4cc(F)cnc4n(-c4cccc(-c5ccc(CN6CCC(CO)CC6)cc5)c4)c3=O)CC2)CC1` (stereo not shown) [Example 128, 1-(dimethylamino)-N-{4-[6-fluoro-1-(4′-{[4-(hydroxymethyl)piperidin-1-yl]methyl}biphenyl-3-yl)-2,4-dioxo-1,4-dihydropyrido[2,3-d]pyrimidin-3(2H)-yl]cyclohexyl}cyclopropane-carboxamide], the “PDE4B2 pIC50” value is listed as 9.8.

Still in this experiment, the particulars now being: recombinant human PDE4B2, radiometric SPA assay, 8 nM [3H]cyclic AMP; read-out: PDE4B2 pIC50 (converted).
`C[C@@H]1CN(Cc2ccc(-c3cccc(-n4c(=O)n([C@H]5CC[C@@H](NC(=O)c6cnc7ccccc7n6)CC5)c(=O)c5cc(F)cnc54)c3)cc2)C[C@H](C)N1` [Example 303, N-{cis-4-[1-(4′-{[(3R,5S)-3,5-dimethylpiperazin-1-yl]methyl}biphenyl-3-yl)-6-fluoro-2,4-dioxo-1,4-dihydropyrido[2,3-d]pyrimidin-3(2H)-yl]cyclohexyl} quinoxaline-2-carboxamide]: the IC50 is 0.02 nM.

For `O=C(NCc1ccccc1)c1cccc(-n2c(=O)n([C@H]3CC[C@@H](NC(=O)c4cn5cc(F)ccc5n4)CC3)c(=O)c3cc(F)cnc32)c1` [Example 92, N-{cis-4-[1-{3-[(benzylamino)carbonyl]phenyl}-6-fluoro-2,4-dioxo-1,4-dihydropyrido[2,3-d]pyrimidin-3(2H)-yl]cyclohexyl}-6-fluoroimidazo[1,2-a]pyridine-2-carboxamide], the IC50 was 0.631 nM.

As for `CCN1CCN(Cc2ccc(-c3cccc(-n4c(=O)n([C@H]5CC[C@@H](NC(=O)C6(N(C)C)CC6)CC5)c(=O)c5cc(F)cnc54)c3)cc2)CC1` [Example 130, 1-(dimethylamino)-N-{cis-4-[1-{4′-[(4-ethylpiperazin-1-yl)methyl]biphenyl-3-yl}-6-fluoro-2,4-dioxo-1,4-dihydropyrido[2,3-d]pyrimidin-3(2H)-yl]cyclohexyl}cyclopropane carboxamide], the IC50 was 0.0251 nM.

`CN1CCCN(Cc2ccc(-c3cccc(-n4c(=O)n([C@H]5CC[C@@H](NC(=O)CCN6CCCCC6)CC5)c(=O)c5cc(F)cnc54)c3)cc2)CC1` [Example 293, N-{cis-4-[6-fluoro-1-{4′-[(4-methyl-1,4-diazepan-1-yl)methyl]biphenyl-3-yl}-2,4-dioxo-1,4-dihydropyrido[2,3-d]pyrimidin-3(2H)-yl]cyclohexyl}-3-piperidin-1-ylpropanamide]: the IC50 was 2 nM.

Take `CCN(CC)Cc1ccc(-c2cccc(-n3c(=O)n([C@H]4CC[C@@H](NC(=O)C5(N(C)C)CC5)CC4)c(=O)c4cc(F)cnc43)c2)cc1` [Example 127, N-{cis-4-[1-{4′-[(diethylamino)methyl]biphenyl-3-yl}-6-fluoro-2,4-dioxo-1,4-dihydropyrido[2,3-d]pyrimidin-3(2H)-yl]cyclohexyl}-1-(dimethylamino)cyclopropanecarboxamide]: the IC50 was 0.2 nM.

In the case of `O=c1c2cc(F)cnc2n(-c2cccc(-c3ccc(O)cc3CN3CCOCC3)c2)c(=O)n1[C@H]1CC[C@@H](NCc2ccccc2F)CC1` [Example 285, 6-fluoro-3-{cis-4-[(2-fluorobenzyl)amino]cyclohexyl}-1-[4′-hydroxy-2′-(morpholin-4-ylmethyl)biphenyl-3-yl]pyrido[2,3-d]pyrimidine-2,4(1H,3H)-dione], the IC50 was 0.794 nM.

For `O=c1c2cc(F)cnc2n(-c2cccc(-c3cccc(O)c3CN3CCOCC3)c2)c(=O)n1[C@H]1CC[C@@H](NCc2cn3cc(F)ccc3n2)CC1` [Example 346, 6-Fluoro-3-(cis-4-{[(6-fluoroimidazo[1,2-a]pyridin-2-yl)methyl]amino}cyclohexyl)-1-[3′-hydroxy-2′-(morpholin-4-ylmethyl)biphenyl-3-yl]pyrido[2,3-d]pyrimidine-2,4(1H,3H)-dione], the IC50 was 0.126 nM.

On to `N[C@H]1CC[C@@H](n2c(=O)c3cc(F)cnc3n(-c3cccc(-c4ccccc4CN4CCOCC4)c3)c2=O)CC1` [Example 46, 3-(cis-4-aminocyclohexyl)-6-fluoro-1-[2′-(morpholin-4-ylmethyl)biphenyl-3-yl]pyrido[2,3-d]pyrimidine-2,4(1H,3H)-dione], for which the IC50 was 2 nM.

Turning to `CC(C)N1CCN(Cc2ccc(-c3cccc(-n4c(=O)n([C@H]5CC[C@@H](NCc6c(C(F)(F)F)nn(C)c6Cl)CC5)c(=O)c5cc(F)cnc54)c3)cc2)CC1` [Example 262, 3-[cis-4-({[5-chloro-1-methyl-3-(trifluoromethyl)-1H-pyrazol-4-yl]methyl}amino)cyclohexyl]-6-fluoro-1-{4′-[(4-isopropyl-piperazin-1-yl}methyl]biphenyl-3-yl}pyrido[2,3-d]pyrimidine-2,4(1H,3H)-dione], the IC50 was 0.794 nM.

Regarding `CN(C)CCOc1cc(F)ccc1-c1cccc(-n2c(=O)n([C@H]3CC[C@@H](NC(=O)c4cn5cc(F)ccc5n4)CC3)c(=O)c3cc(F)cnc32)c1` [Example 82, N-{cis-4-[1-{2′-[2-(dimethylamino)ethoxy]-4′-fluorobiphenyl-3-yl}-6-fluoro-2,4-dioxo-1,4-dihydropyrido[2,3-d]pyrimidin-3 (2H)-yl]cyclohexyl}-6-fluoroimidazo[1,2-a]pyridine-2-carboxamide], the IC50 was 0.2 nM.

As for `NC1(C(=O)N[C@H]2CC[C@@H](n3c(=O)c4cc(F)cnc4n(-c4cccc(-c5ccccc5CN5CCOCC5)c4)c3=O)CC2)CCCC1` [Example 70, 1-amino-N-{cis-4-[6-fluoro-1-[2′-(morpholin-4-ylmethyl)biphenyl-3-yl]-2,4-dioxo-1,4-dihydropyrido[2,3-d]pyrimidin-3(2H)-yl]cyclohexyl}cyclopentanecarboxamide trifluoroacetate salt], the IC50 was 2 nM.

As to `CN(C)Cc1ccc(-c2cccc(-n3c(=O)n([C@H]4CC[C@@H](NCc5cn6ccccc6n5)CC4)c(=O)c4cc(F)cnc43)c2)cc1` [Example 343, 1-{4′-[(dimethylamino)methyl]biphenyl-3-yl}-6-fluoro-3-{cis-4-[(imidazo[1,2-a]pyridin-2-ylmethyl)amino]cyclohexyl}pyrido[2,3-d]pyrimidine-2,4(1H,3H)-dione], the IC50 was 2 nM.

In the case of `CN(C)C1(C(=O)N[C@H]2CC[C@@H](n3c(=O)c4cc(F)cnc4n(-c4cccc(-c5ccc(CN6CCCCC6)cc5)c4)c3=O)CC2)CC1` [Example 125, 1-(dimethylamino)-N-{cis-4-[6-fluoro-2,4-dioxo-1-[4′-(piperidin-1-ylmethyl)biphenyl-3-yl]-1,4-dihydropyrido[2,3-d]pyrimidin-3(2H)-yl]cyclohexyl}cyclopropane-carboxamide], the IC50 is 0.158 nM.

Take `CC(=O)n1cc(CN(Cc2cn(C(C)=O)c3ccccc23)[C@H]2CC[C@@H](n3c(=O)c4cc(F)cnc4n(-c4cccc(-c5ccc(CN6CCN(C(C)C)CC6)cc5)c4)c3=O)CC2)c2ccccc21` [Example 341, 3-(cis-4-{bis[(1-acetyl-1H-indol-3-yl)methyl]amino}cyclohexyl)-6-fluoro-1-{4′-[(4-isopropylpiperazin-1-yl)methyl]biphenyl-3-yl}pyrido[2,3-d]pyrimidine-2,4(1H,3H)-dione]: the IC50 is 0.501 nM.

In the case of `Cc1cc(C(=O)N[C@H]2CC[C@@H](n3c(=O)c4cc(F)cnc4n(-c4cccc(-c5ccc(CN6CCC(N7CCCC7)CC6)cc5)c4)c3=O)CC2)nn1C` [Example 118, N-{cis-4-[6-fluoro-2,4-dioxo-1-{4′-[(4-pyrrolidin-1-ylpiperidin-1-yl)methyl]biphenyl-3-yl}-1,4-dihydropyrido[2,3-d]pyrimidin-3(2H)-yl]cyclohexyl}-1,5-dimethyl-1H-pyrazole-3-carboxamide], the IC50 was 0.0251 nM.

The values above are taken from US20100204203A1, “Chemical Compounds 637: Pyridopyrimidinediones as PDE4 Inhibitors” (priority 2007, published 2010).
